Among the test systems are A549 NSCLC; HCC-2998 colon; MALME-3M melanoma; NCI-H226 lung; OVCAR-3 ovarian; RXF 393 renal; SF-539 CNS; SK-MEL-28 melanoma; SW-620 colon; OVCAR-4 ovarian; OVCAR-5 ovarian.
Assay in all cases: NCI tumour cell line growth inhibition, 48 h

This note sets out measurements from PubChem BioAssay (NCI).

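Interpolation was linear, between the two tested concentrations surrounding the appropriate level; five concentrations were tested over 48 hours in 96-well plates. TGI: concentration producing complete growth inhibition.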

Take `C#C[C@]1(O)CCC2C3CCc4cc(Oc5nc(F)nc(-c6c7cc8ccccc8cc7c7n6CCS7)n5)ccc4C3CCC21C` (some centres not stated): the TGI in the assay with A549 NSCLC, in the assay with HCC-2998 colon, with MALME-3M melanoma, with NCI-H226 lung, with OVCAR-3 ovarian and with RXF 393 renal was > 100 µM in each case. Also, the TGI in the assay on SF-539 CNS, with SK-MEL-28 melanoma and in the assay on SW-620 colon was > 100 µM throughout.
Consider `CCCN1CN(C(C(=O)N[C@@H]2C(=O)N3C(C(=O)O)=C(C)CSC23)c2ccc(O)cc2)CSC1=S` (some centres not stated), for which the TGI with A549 NSCLC, in the assay with MALME-3M melanoma, in the assay on OVCAR-3 ovarian, with OVCAR-4 ovarian, in the assay with OVCAR-5 ovarian and with SF-539 CNS was > 100 µM each time. Further, the TGI in the assay with SK-MEL-28 melanoma is > 100 µM; in the assay with SW-620 colon it was 30.8 µM.
Take `CC1(C)CCC[C@@]2(C)C1CC[C@H]1CC(O)C3(C)CCC12C3` (some centres not stated): the TGI turned out to be 37.4 µM in the assay on A549 NSCLC; 34.1 µM with HCC-2998 colon; 30.7 µM in the assay on MALME-3M melanoma; 34.3 µM in the assay on NCI-H226 lung; 30.7 µM in the assay on OVCAR-3 ovarian; 31.9 µM in the assay on OVCAR-4 ovarian. Besides, the TGI with OVCAR-5 ovarian was determined as 32.2 µM; with RXF 393 renal, 26.1 µM; in the assay on SF-539 CNS it was 33 µM; in the assay on SK-MEL-28 melanoma, 33.7 µM; in the assay with SW-620 colon, 30.8 µM.
On to `CCCn1c(SCC)c2cc3cc4ccccc4cc3cc2c1-c1nc(F)nc(F)n1`, for which the TGI with A549 NSCLC, in the assay with HCC-2998 colon, in the assay with MALME-3M melanoma, with NCI-H226 lung, in the assay with OVCAR-3 ovarian and with OVCAR-4 ovarian was > 100 µM in each case. In addition, the TGI with OVCAR-5 ovarian, in the assay on RXF 393 renal, in the assay with SF-539 CNS, in the assay on SK-MEL-28 melanoma and in the assay on SW-620 colon was > 100 µM throughout.
Regarding `COc1cc(C=Nc2ccc(C(C)C)cc2)cc(OC)c1OC`, the TGI in the assay with A549 NSCLC, in the assay on MALME-3M melanoma, in the assay on NCI-H226 lung, with OVCAR-3 ovarian, in the assay with OVCAR-4 ovarian and in the assay with OVCAR-5 ovarian was > 100 µM each time. Moreover, the TGI in the assay on RXF 393 renal was > 100 µM; in the assay with SF-539 CNS, > 100 µM; with SK-MEL-28 melanoma it was > 100 µM; in the assay with SW-620 colon, > 54.6 µM.
With `O=c1oc2ccccc2c(O)c1C(c1ccc(/C=C/c2ccccc2)cc1)c1c(O)c2ccccc2oc1=O`, the TGI is 45.2 µM with HCC-2998 colon; 65.7 µM in the assay on MALME-3M melanoma; 74.4 µM in the assay with NCI-H226 lung; > 100 µM with OVCAR-3 ovarian; > 100 µM in the assay on OVCAR-4 ovarian; 86.9 µM in the assay with SK-MEL-28 melanoma. In addition, the TGI in the assay on SW-620 colon is > 100 µM.
`CC(C)C1CCC/C=C/C=C/C=C/C=C/C(OC2OC(C)C(O)C(N)C2O)CC2OC(O)(CC(O)CC(O)C(O)CCC(=O)O1)CC(O)C2C(=O)O` (configuration not stated): the TGI in the assay with A549 NSCLC, with MALME-3M melanoma, in the assay on OVCAR-3 ovarian, with SF-539 CNS, in the assay on SK-MEL-28 melanoma and with SW-620 colon was > 52.5 µM in each case.
Consider `O=C(O)c1ccc(Nc2nc3ccccc3nc2-c2cccs2)cc1`, for which the TGI with A549 NSCLC, in the assay with HCC-2998 colon, in the assay with MALME-3M melanoma, in the assay on NCI-H226 lung, in the assay with OVCAR-3 ovarian and in the assay on OVCAR-4 ovarian was > 100 µM in each case. Moreover, the TGI in the assay on OVCAR-5 ovarian, with RXF 393 renal, in the assay on SF-539 CNS, in the assay on SK-MEL-28 melanoma and with SW-620 colon was > 100 µM throughout.
`COC(=O)C1[C@@H](C(=O)OC)C12C=Cc1ccccc1C=C2` (some centres not stated): the TGI in the assay with A549 NSCLC, in the assay on HCC-2998 colon, with MALME-3M melanoma, with OVCAR-3 ovarian, with OVCAR-5 ovarian and in the assay on RXF 393 renal was > 100 µM throughout. In addition, the TGI with SF-539 CNS, with SK-MEL-28 melanoma and in the assay on SW-620 colon was > 100 µM each time.
On to `O=C(c1cccs1)N(C(=S)N1CCN(c2ccccn2)CC1)C1CCCCC1`, for which the TGI in the assay on A549 NSCLC is > 100 µM; in the assay on MALME-3M melanoma it was > 100 µM; in the assay with NCI-H226 lung, 73.8 µM; with OVCAR-3 ovarian it was > 100 µM; with OVCAR-4 ovarian, > 100 µM; with OVCAR-5 ovarian, > 100 µM. The TGI in the assay on RXF 393 renal, in the assay with SF-539 CNS, with SK-MEL-28 melanoma and in the assay on SW-620 colon was > 100 µM in each case.
`O=C(c1ccco1)N(C(=S)N1CCN(c2ccccn2)CC1)C1CCCCC1`: the TGI in the assay on A549 NSCLC, in the assay on MALME-3M melanoma, in the assay on NCI-H226 lung, in the assay on OVCAR-3 ovarian, in the assay with OVCAR-4 ovarian and in the assay with OVCAR-5 ovarian was > 100 µM each time. The TGI in the assay with RXF 393 renal, in the assay on SF-539 CNS, in the assay with SK-MEL-28 melanoma and in the assay with SW-620 colon was > 100 µM in each case.
